Data set [1] relates to E. faecalis (ATCC® 29212™). Put plainly: MIC, 96-well microplate microdilution (Example 4). In kind it is cell-based. Particulars: 18 h at 37° C.; for MIC: Enterococcus faecalis, ATCC29212, Mueller-Hinton medium, read-out: Minimum inhibitory concentration (MIC) E. faecalis. The protocol:
(§1) The bacteriostatic properties of the derivatives are evaluated by measuring their minimum inhibitory concentration (MIC) on the bacteria tested. Such a measurement is made using the 96-well microplate microdilution method according to the conditions defined below.
(§2) The minimum inhibitory concentrations (MIC) are tested on Gram-positive bacterial strains according to the recommendations of the “Clinical Laboratory Standards Institute” (Clinical-Laboratory-Standards-Institute, 6th ed. Approved standard M100-S17. CLSI, Wayne, Pa., 2007).
(§3) The Gram-positive bacteria studied are as follows: L. monocytogenes (CIP 103575), E. faecalis (ATCC® 29212™) and S. aureus (ATCC® 292213™).
(§4) The cultures studied, freshly isolated (after incubation on a blood agar at 37° C. for 18 h), are taken up in sterile water (10 mL) until a 0.5 McFarland (Mc) suspension i.e. 1 to 2×10^8 CFU (bacteria)/cm^3 is obtained. The bacterial suspension was then diluted to obtain a final concentration of 5×10^5 CFU/cm^3.
(§5) Each well contains an identical quantity of Mueller-Hinton medium (a rich medium for bacterial culture) and bacteria with final 5×10^5 CFU/cm^3.
(§6) The test compounds of interest are solubilized in 2.5% m of ethanol before being diluted to different concentrations two by two.
(§7) On the multiwell plate, a first series has been planned comprising the culture medium without the test compound of interest. It corresponds to the growth control (control well). These controls serve as reference for comparing bacterial growth with that of the subsequent wells comprising different concentrations of the test compound of interest. The second series of wells comprises the mother solution for the test compound of interest for a concentration in the wells of 4 mM. Each series of wells was diluted two by two until the last series for a final concentration of 0.003 mM. Each concentration is duplicated in the same plate. The plate is incubated for 18 h at 37° C. […] If there is antibacterial activity, the bacterial growth is inhibited, which means that no turbidity or bacterial residue is present.
(§8) Tests have been conducted on Gram-positive bacteria with sorbitan derivatives. […] After sterilization the solutions are diluted in water. The results obtained for antimicrobial tests on the 3 bacterial strains L. monocytogenes (CIP 103575), E. faecalis (ATCC® 29212™) and S. aureus (ATCC® 292213™) are summarized in Table 1.

The subject of data set [2] is L. monocytogenes (CIP 103575). Put plainly: MIC, 96-well microplate microdilution (Example 4). It counts as cell-based. The following applies: 18 h at 37° C.; for Minimum inhibitory concentration (MIC) L. monocytogenes: Mueller-Hinton medium; for MIC: Listeria monocytogenes, CIP103575, Mueller-Hinton medium, read-out: Minimum inhibitory concentration (MIC) L. monocytogenes. The protocol: as §1, §2, §3, §4, §5, §6, §7, §8
A general note: Dilution methods test growth across graded concentrations, often in twofold steps.

Data set [3] has as its system S. aureus (ATCC® 292213™). As to the kind of experiment: MIC, 96-well microplate microdilution (Example 4). It counts as cell-based. Particulars: for Minimum inhibitory concentration (MIC) S. aureus / MIC: ATCC 292213, Mueller-Hinton medium, 18 h at 37° C.; for MIC: Staphylococcus aureus, ATCC292213, read-out: Minimum inhibitory concentration (MIC) S. aureus. The procedure:
as §1, §2, §3, §4, §5, §6, §7, §8

For data set [4], the system named is E. faecalis (ATCC® 29212™). Put plainly: MBC, bacterial count from clear wells reseeded on agar (Example 5). It counts as cell-based. The procedure:
(§9) To determine whether the agents tested are bactericidal, the minimum bactericidal concentration (MBC) is determined. The MBC corresponds to the concentration leaving a number of bacterial survivors of <4 log. For this, a bacterial count is run from clear wells or without bacterial residue (C≤MIC). To do this, a dilution to 1/100 was conducted with the two wells with the same concentration before seeding on a blood agar using the Spiral technique. After 24 h of incubation at 37° C., the visual count allowed determination of the minimum concentration from which there is no bacterial growth.
(§10) To determine the bactericidal effect of compounds presenting bacteriostatic properties, the wells no longer presenting turbidity were reseeded on agar.

Data set [5] has as its system L. monocytogenes (CIP 103575). The data set is described as above. It counts as cell-based. The procedure: as §9, §10
The nature of data set [6]: Critical micelle concentration (surfactant properties, Example 6). It counts as physicochemical. The source says:
The physical, chemical and antimicrobial properties for the best products synthesized have been tested. These analyses show the different surfactant profiles, and the minimum inhibitory concentrations (MIC) for each compound on Gram-positive bacteria. The best surfactant and antimicrobial results are compared in Table 3.

In data set [7] the test system is L. monocytogenes (CIP 103575), E. faecalis (ATCC® 29212™) and S. aureus (ATCC® 292213™). Put plainly: MIC microdilution, statements for all three Gram-positive strains together. In kind it is cell-based. The procedure: as §1, §2, §3, §4, §5, §6
On the multiwell plate, a first series has been planned comprising the culture medium without the test compound of interest. […]

In brackets after ≈: the same amount, converted by molar mass. Some results are limits rather than exact numbers.

On to “5,6-O-Dodecylidene-1,4-D-sorbitan 1e and 1e′ and 3,5-O-dodecylidene-1,4-D-sorbitan 1e′ and 1e′″ [Example 1e]”, for which, in data set [1] (Mueller-Hinton medium), the “Minimum inhibitory concentration (MIC) E. faecalis” value turned out to be 0.03 mM. In addition, in data set [2], the “Minimum inhibitory concentration (MIC) L. monocytogenes” value came to 0.03 mM. Besides, in data set [3], the “bacteriostatic concentration for S. aureus” value was 0.12 mM and the “Minimum inhibitory concentration (MIC) S. aureus” value was determined as 0.12 mM. Besides, the “bactericidal concentration for E. faecalis” value in data set [4] is 0.03 mM. The “minimum bactericidal concentration (MBC) E. faecalis” value in data set [4] (Table 2, reseeded on agar) is 0.03 mM. The “bactericidal concentration for L. monocytogenes” value in data set [5] came to 0.03 mM. In data set [5] (Table 2, reseeded on agar), the “minimum bactericidal concentration (MBC) L. monocytogenes” value stood at 0.03 mM. The “CMC (critical micelle concentration)” value in data set [6] was determined as 0.034 mM.

As for `CCCCC1OCC([C@H]2OCC(O)C2O)O1` (stereo partly drawn) [Example 1a, 5,6-O-Pentylidene-1,4-D-sorbitan 1a and 1a′ and 3,5-O-pentylidene-1,4-D-sorbitan 1a″ and 1a′″], the MIC in data set [1], in data set [2] and in data set [3] was more than 4 mM each time.

As to `CCCCCC1OCC([C@H]2OCC(O)C2O)O1` (stereo partly drawn) [Example 1b, 5,6-O-Hexylidene-1,4-D-sorbitan 1b and 1b′ and 3,5-O-hexylidene-1,4-D-sorbitan 1b″ and 1b′″], the MIC in data set [1], in data set [2] and in data set [3] was more than 4 mM each time.

For the molecule `CCCCCCCC1OCC([C@H]2OCC(O)C2O)O1` (stereo partly drawn) [Example 1c, 5,6-O-Octylidene-1,4-D-sorbitan 1c and 1c′ and 3,5-O-octylidene-1,4-D-sorbitan 1c″ and 1c′″], the MIC in data set [1], in data set [2] and in data set [3] was more than 4 mM in each case.

For `CCCCCCCCCC1OCC([C@H]2OCC(O)C2O)O1` (stereo partly drawn) [Example 1d, 5,6-O-Decylidene-1,4-D-sorbitan 1d and 1d′ and 3,5-O-decylidene-1,4-D-sorbitan 1d′ and 1d′″], the MIC in data set [1], in data set [2] and in data set [3] was more than 4 mM in each case.

`CCCCCOCC(O)[C@H]1OCC(O)C1O` (stereo partly drawn) [Example 2a, Pentyl-1,4-D-sorbitan]: the MIC in data set [1], in data set [2] and in data set [3] was more than 4 mM each time.

On to `CCCCCCOCC(O)[C@H]1OCC(O)C1O` (stereo partly drawn) [Example 2b, Hexyl-1,4-D-sorbitan], for which the MIC in data set [1], in data set [2] and in data set [3] was more than 4 mM in each case.

Regarding `CCCCCCCCOCC(O)[C@H]1OCC(O)C1O` (stereo partly drawn) [Example 2c, Octyl-1,4-D-sorbitan], the MIC in data set [1], in data set [2] and in data set [3] was more than 4 mM each time.

With `CCCCCCCCCCOCC(O)[C@H]1OCC(O)C1O` (stereo partly drawn) [Example 2d, Decyl-1,4-d-sorbitan], the MIC in data set [1], in data set [2] and in data set [3] was more than 4 mM in each case.

Regarding `CCCCCCCCCCCC(=O)OCC(O)CO` (stereo not drawn) [Monolaurin (ML), monolaurin, reference compound], the “Minimum inhibitory concentration (MIC) L. monocytogenes” value in data set [2] amounted to 0.04 mM (≈ 11 µg/mL). Further, the “Minimum inhibitory concentration (MIC) S. aureus” value in data set [3] is 0.04 mM (≈ 11 µg/mL).

For `CCCCCCCCCCCC=O` [dodecanal, reference compound], the “MIC / inhibitory concentration on the bacterial strains studied” value in data set [7] is more than 4 mM.

The values are drawn from US10874103B2, “Antibacterial composition comprising an acetal or a long-chain alkyl hexitane ether” (TEREOS STARCH & SWEETENERS BELGIUM, priority 2014, dated 2020).
